Columns and labels:
[1] = 100 kPa, Liquid; for mass density: Vibrating tube method; for viscosity: Cone and plate viscometry
[2] = xn = mol fraction of the nth substance listed; settings: 100 kPa, Liquid, Cone and plate viscometry

CCCCCC[n+]1ccn(C)c1.O=S(=O)([N-]S(=O)(=O)C(F)(F)F)C(F)(F)F
[1]
Settings | mass density [kg/m3]
283.15 K | 1385.6
288.15 K | 1381
293.15 K | 1376.5
295.15 K | 1374.6
298.15 K | 1371.9
303.15 K | 1367.3
308.15 K | 1362.8
313.15 K | 1358.3
318.15 K | 1353.7
323.15 K | 1349.2
328.15 K | 1344.7
333.15 K | 1340.3
338.15 K | 1335.8
343.15 K | 1331.4
348.15 K | 1326.9
353.15 K | 1322.5

CCCCCCn1cc[n+](C)c1C.O=S(=O)([N-]S(=O)(=O)C(F)(F)F)C(F)(F)F
[1]
Settings | mass density [kg/m3]
283.15 K | 1373
288.15 K | 1368.4
293.15 K | 1363.9
295.15 K | 1362.1
298.15 K | 1359.5
303.15 K | 1355.1
308.15 K | 1350.8
313.15 K | 1346.4
318.15 K | 1342
323.15 K | 1337.6
328.15 K | 1333.2
333.15 K | 1328.9
338.15 K | 1324.5
343.15 K | 1320.2
348.15 K | 1315.8
353.15 K | 1311.5

CCCC[n+]1ccn(C)c1.O=S(=O)([N-]S(=O)(=O)C(F)(F)F)C(F)(F)F
[1]
Settings | mass density [kg/m3] | viscosity [mPa·s]
278.15 K | – | 138
283.15 K | 1451.1 | 104
288.15 K | 1446.3 | 80
293.15 K | 1441.5 | 63
295.15 K | 1439.6 | –
298.15 K | 1436.8 | 51
303.15 K | 1432 | –
308.15 K | 1427.3 | –
313.15 K | 1422.7 | –
318.15 K | 1418 | –
323.15 K | 1413.3 | –
328.15 K | 1408.7 | –
333.15 K | 1404.1 | –
338.15 K | 1399.4 | –
343.15 K | 1394.8 | –
348.15 K | 1390.2 | –
353.15 K | 1385.7 | –

CC[P+](CC)(CC)COCCOC.O=S(=O)([N-]S(=O)(=O)C(F)(F)F)C(F)(F)F
[1]
Settings | viscosity [mPa·s]
278.15 K | 84
283.15 K | 65
288.15 K | 51

CCn1cc[n+](C)c1.O=S(=O)([N-]S(=O)(=O)C(F)(F)F)C(F)(F)F
[1]
Settings | mass density [kg/m3] | viscosity [mPa·s]
278.15 K | – | 80
283.15 K | 1534.1 | 63
288.15 K | 1529 | 50
293.15 K | 1523.9 | –
295.15 K | 1521.9 | –
298.15 K | 1518.9 | –
303.15 K | 1513.9 | –
308.15 K | 1508.9 | –
313.15 K | 1503.9 | –
318.15 K | 1499 | –
323.15 K | 1494.1 | –
328.15 K | 1489.1 | –
333.15 K | 1484.2 | –
338.15 K | 1479.3 | –
343.15 K | 1474.4 | –
348.15 K | 1469.6 | –
353.15 K | 1464.7 | –

CCCCCCn1cc[n+](C)c1.N#Cc1ccc[n-]1 [1-hexyl-3-methylimidazolium 2-cyanopyrrolide]
[1]
Settings | viscosity [mPa·s]
278.15 K | 1540
283.15 K | 902
288.15 K | 553
293.15 K | 355
298.15 K | 239
303.15 K | 167
308.15 K | 122
313.15 K | 91
318.15 K | 70
323.15 K | 55

CCCCCCC[P+](CC)(CC)CC.O=[N+]([O-])c1cn[n-]c1 [triethylheptylphosphonium 4-nitropyrazolide] + CC[P+](CC)(CC)COCCOC.O=S(=O)([N-]S(=O)(=O)C(F)(F)F)C(F)(F)F
viscosity [mPa·s], [2]
Settings | 278.15 K | 283.15 K | 288.15 K | 293.15 K | 298.15 K | 303.15 K | 308.15 K | 313.15 K | 318.15 K | 323.15 K
x1 = 0.101 | 103 | 80 | 62 | 50 | – | – | – | – | – | –
x1 = 0.248 | 135 | 101 | 78 | 61 | 50 | – | – | – | – | –
x1 = 0.5 | 234 | 170 | 126 | 96 | 75 | 59 | – | – | – | –
x1 = 0.75 | 474 | 328 | 231 | 168 | 126 | 97 | 76 | 61 | 50 | –
x1 = 0.901 | 761 | 510 | 350 | 249 | 182 | 137 | 105 | 84 | 66 | 54

CCCCCCCC[P+](CC)(CC)CC.O=[N+]([O-])c1cn[n-]c1 [triethyloctylphosphonium 4-nitropyrazolide]
[1]
Settings | mass density [kg/m3]
283.15 K | 1040.7
288.15 K | 1037.7
293.15 K | 1034.6
295.15 K | 1033.4
298.15 K | 1031.5
303.15 K | 1028.5
308.15 K | 1025.5
313.15 K | 1022.6
318.15 K | 1019.6
323.15 K | 1016.7
328.15 K | 1013.8
333.15 K | 1010.8
338.15 K | 1007.9
343.15 K | 1005
348.15 K | 1002.1
353.15 K | 999.2

CCCCCCCCCCCCCC[P+](CCCCCC)(CCCCCC)CCCCCC.N#Cc1ccc[n-]1 [trihexyl(tetradecyl)phosphonium 2-cyanopyrrolide]
[1]
Settings | viscosity [mPa·s]
278.15 K | 1764
283.15 K | 1179
288.15 K | 804
293.15 K | 563
298.15 K | 404
303.15 K | 297
308.15 K | 223
313.15 K | 170
318.15 K | 133
323.15 K | 106

CCCCCCCCCCCCCC[P+](CCCCCC)(CCCCCC)CCCCCC.O=[N+]([O-])c1cn[n-]c1 [trihexyl(tetradecyl)phosphonium 4-nitropyrazolide] + CCCCCC[n+]1ccn(C)c1.O=S(=O)([N-]S(=O)(=O)C(F)(F)F)C(F)(F)F
viscosity [mPa·s], [2]
Settings | 278.15 K | 283.15 K | 288.15 K | 293.15 K | 298.15 K | 303.15 K | 308.15 K | 313.15 K | 318.15 K | 323.15 K
x1 = 0.099 | 338 | 241 | 175 | 132 | 101 | 80 | 65 | 52 | – | –
x1 = 0.2 | 528 | 367 | 261 | 191 | 144 | 111 | 88 | 70 | 57 | –
x1 = 0.3 | 831 | 565 | 393 | 282 | 208 | 158 | 122 | 97 | 78 | 64
x1 = 0.501 | 1594 | 1055 | 715 | 499 | 357 | 264 | 199 | 153 | 120 | 96
x1 = 0.695 | 2474 | 1600 | 1061 | 726 | 512 | 371 | 276 | 209 | 162 | 128
x1 = 0.797 | 2704 | 1750 | 1158 | 788 | 554 | 400 | 296 | 222 | 171 | 134
x1 = 0.898 | 3071 | 1971 | 1297 | 880 | 614 | 441 | 325 | 244 | 187 | 146
